Reference: US9242984B2, “Pyrazolyl derivatives as Syk inhibitors” (Merck Sharp & Dohme Corp., priority 2012, dated 2016)

Molecular target: T1, recombinant human Syk (GST-hSyk fusion protein) (Homo sapiens, UniProt P43405)
T1 construct: purchased Carna Biosciences 08-176
Assay: Homogeneous Time-Resolved Fluorescence (HTRF) assay for the recombinant human Syk enzyme
Type: biochemical
Settings: 10-dose titration, 25 μM ATP; read-out: rhSYK IC50
Protocol: Syk inhibition may be determined using the following assay protocol:
Homogeneous Time-Resolved Fluorescence (HTRF) Assay for the Recombinant Human Syk Enzyme:
A recombinant GST-hSyk fusion protein was used to measure potency of compounds to inhibit human Syk activity. The recombinant human GST-Syk (Carna Biosciences #08-176) (5 pM final concentration) was incubated with various concentrations of the inhibitor diluted in DMSO (0.1% final concentration) for 10 minutes at room temperature in 15 mM Tris-HCl (pH 7.5), 0.01% tween 20, 2 mM DTT in 384 well plate format. To initiate the reaction the biotinylated substrate peptide (250 nM final concentration) that contains the phosphorylation site for Syk was added with magnesium (5 mM final concentration) and ATP (25 μM final concentration). Final volume of the reaction was 10 μL. Phosphorylation of the peptide was allowed to proceed for 45 minutes at room temperature. To quench the reaction and detect the phosphorylated product, 2 nM of a Europium-anti-phosphotyrosine antibody (Perkin Elmer #AD0161) and 70 nM SA-APC (Perkin-Elmer #CR130-100) were added together in 15 mM Tris pH 7.5, 40 mM EDTA, 0.01% tween 20. Final volume of the quenching solution was 10 μL. The resulting HTRF signal was measured after 30 minutes on an EnVision (Perkin-Elmer) reader using a time-resolved fluorescence protocol. IC50 was determined following 10-dose titration (10 μM to 0.508 nM) and four parameter logistic curve fitting using the Merck Assay Data Analyzer. The rhSyk activity (IC50) is expressed as +++(100 nM or less), ++(between 100 and 1000 nM), +(between 1 and 10 μM).

Row | IC50 [nM] | SMILES
1 | 61 | Cc1cc(Nc2nccc(C(F)(F)F)n2)cc(-n2cc(CCC(=O)O)cn2)c1 [Example 19.1, 3-(1-(3-methyl-5-((4-(trifluoromethyl)pyrimidin-2-yl)amino)phenyl)-1H-pyrazol-4-yl)propanoic acid]
2 | 8.6 | Cc1cc(Nc2nccc(C(F)F)n2)cc(-c2cnn(CCNS(C)(=O)=O)c2)c1 [Example 27.1, N-(2-(4-(3-((4-(Difluoromethyl)pyrimidin-2-yl)amino)-5-methylphenyl)-1H-pyrazol-1-yl)ethyl)methanesulfonamide]
3 | 21.1 | Cc1cc(Nc2nccc(C(F)(F)F)n2)cc(-c2cnn(C[C@H](O)C(=O)NCCO)c2)c1 [Example 6.1, (2S)-2-hydroxy-N-(2-hydroxyethyl)-3-[4-(3-methyl-5-{[4-(trifluoromethyl)pyrimidin-2-yl]amino}phenyl)-1H-pyrazol-1-yl]propanamide]

Same assay, conditions: IC50 class; 10-dose titration, 25 μM ATP; read-out: rhSYK Activity

Row | IC50 [nM] | SMILES
4 | ≤ 100 | Cc1cc(Nc2nccc(C(F)F)n2)cc(-c2cnn(C(C)C(C)(O)CO)c2)c1 (single isomer, unassigned) [Example 22.2, 3-(4-(3-((4-(Difluoromethyl)pyrimidin-2-yl)amino)-5-methylphenyl)-1H-pyrazol-1-yl)-2-methylbutane-1,2-diol]
5 | ≤ 100 | Cc1cc(Nc2nccc(C(F)(F)F)n2)cc(-c2cnn(C[C@@]3(O)C[C@@H](C)O[C@@H](C)C3)c2)c1 [Example 12.8, meso (2R,4S,6S)-2,6-dimethyl-4-{[4-(3-methyl-5-{[4-(trifluoro-methyl)pyrimidin-2-yl]amino}phenyl)-1H-pyrazol-1-yl]methyl}-tetrahydro-2H-pyran-4-ol]
6 | ≤ 100 | Cc1cc(Nc2nccc(C(F)(F)F)n2)cc(-c2cnn(CC3OC(=O)NC3C(C)C)c2)c1 (single isomer, unassigned) [Example 23.5, 4-(1-methylethyl)-5-{[4-(3-methyl-5-{[4-(trifluoromethyl)pyrimidin-2-yl]amino}phenyl)-1H-pyrazol-1-yl]methyl}-1,3-oxazolidin-2-one]
7 | ≤ 100 | Cc1cc(Nc2ncc(F)c(C(F)F)n2)cc(-c2cnn(CC(C)(O)CO)c2)c1 (single isomer, unassigned) [Example 25.10, 3-[4-(3-{[4-(difluoromethyl)-5-fluoropyrimidin-2-yl]amino}-5-methylphenyl)-1H-pyrazol-1-yl]-2-methylpropane-1,2-diol]
8 | ≤ 100 | Cc1cc(Nc2nccc(C(F)(F)F)n2)cc(-n2cc(CCC(=O)O)cn2)c1 [Example 19.1, 3-(1-(3-methyl-5-((4-(trifluoromethyl)pyrimidin-2-yl)amino)phenyl)-1H-pyrazol-4-yl)propanoic acid]
9 | ≤ 100 | Cc1cc(Nc2nccc(C(F)F)n2)cc(-c2cnn(CC(C)(O)CO)c2)c1 (single isomer, unassigned) [Example 25.3, 3-[4-(3-{[4-(difluoromethyl)pyrimidin-2-yl]amino}-5-methylphenyl)-1H-pyrazol-1-yl]-2-methylpropane-1,2-diol]
10 | ≤ 100 | Cc1cc(Nc2nccc(C(F)F)n2)cc(-c2cnn(CCNS(C)(=O)=O)c2)c1 [Example 27.1, N-(2-(4-(3-((4-(Difluoromethyl)pyrimidin-2-yl)amino)-5-methylphenyl)-1H-pyrazol-1-yl)ethyl)methanesulfonamide]
11 | ≤ 100 | Cc1cc(Nc2nccc(C(F)(F)F)n2)cc(-c2cnn(C[C@H](O)C(=O)NCCO)c2)c1 [Example 6.1, (2S)-2-hydroxy-N-(2-hydroxyethyl)-3-[4-(3-methyl-5-{[4-(trifluoromethyl)pyrimidin-2-yl]amino}phenyl)-1H-pyrazol-1-yl]propanamide]
12 | ≤ 100 | Cc1cc(Nc2nccc(C(F)F)n2)cc(-c2cnn(CC3OC(=O)NC3C3CC3)c2)c1 (stereo not drawn) [Example 23.17, 4-cyclopropyl-5-{[4-(3-{[4-(difluoromethyl)pyrimidin-2-yl]amino}-5-methylphenyl)-1H-pyrazol-1-yl]methyl}-1,3-oxazolidin-2-one]
13 | ≤ 100 | COCCNC(=O)[C@@H](O)Cn1cc(-c2cc(C)cc(Nc3nccc(C(F)(F)F)n3)c2)cn1 [Example 6.13, (2S)-2-hydroxy-N-(2-methoxyethyl)-3-[4-(3-methyl-5-{[4-(trifluorometh-yl)pyrimidin-2-yl]amino}phenyl)-1H-pyrazol-1-yl]propanamide]
14 | ≤ 100 | Cc1cc(Nc2nccc(C(F)(F)F)n2)cc(-c2cnn(CC3(O)CCOCC3)c2)c1 [Example 12.5, 4-{[4-(3-methyl-5-{[4-(trifluoromethyl)pyrimidin-2-yl]amino}phenyl)-1H-pyrazol-1-yl]methyl}-tetrahydro-2H-pyran-4-ol]
15 | ≤ 100 | Cc1cc(Nc2nccc(C(F)(F)F)n2)cc(-c2cnn(C(C)C(N)=O)c2)c1 (racemic) [Example 8.8, 2-[4-(3-methyl-5-{[4-(trifluoromethyl)-pyrimidin-2-yl]amino}phenyl)-1H-pyrazol-1-yl]propanamide]

The remaining lines, values behind:

Row | SMILES | IC50 [nM]
16 | C[C@@](O)(CO)Cn1cc(-c2cccc(Nc3nccc(C(F)(F)F)n3)c2)cn1 [Example 2.86, (2S)-2-methyl-3-[4-(3-{[4-(trifluoromethyl)pyrimidin-2-yl]amino}phenyl)-1H-pyrazol-1-yl]propane-1,2-diol] | ≤ 100
17 | Cc1cc(Nc2nccc(C(C)C)n2)cc(-c2cnn(CC3CNC(=O)O3)c2)c1 (stereo not drawn) [Example 2.24, 5-{[4-(3-methyl-5-{[4-(1-methylethyl)pyrimidin-2-yl]amino}phenyl)-1H-pyrazol-1-yl]methyl}-1,3-oxazolidin-2-one] | ≤ 100
18 | Cc1cc(Nc2cc(C(F)F)ccn2)nc(-c2cnn(C(C)C3CNC(=O)C3)c2)c1 (stereo not drawn) [Example 1.62, 4-{1-[4-(6-{[4-(difluoromethyl)pyridin-2-yl]amino}-4-methylpyridin-2-yl)-1H-pyrazol-1-yl]ethyl}pyrrolidin-2-one] | ≤ 100
19 | Cc1cc(Nc2nccc(C(F)(F)F)n2)cc(-c2cnn(C[C@H](O)CO)c2)c1 [Example 3.42, (2S)-3-[4-(3-methyl-5-{[4-(trifluoromethyl)pyrimidin-2-yl]amino}phenyl)-1H-pyrazol-1-yl]propane-1,2-diol] | ≤ 100
20 | Cc1cc(Nc2nccc(C(F)(F)F)n2)cc(-c2cnn(CCC(N)=O)c2)c1 [Example 3.3] | ≤ 100
21 | Cc1cc(Nc2nccc(C(F)(F)F)n2)cc(-c2c(C)n[nH]c2C)c1 [Example 2.38, N-[3-(3,5-dimethyl-1H-pyrazol-4-yl)-5-methylphenyl]-4-(trifluoromethyl)pyrimidin-2-amine] | 100 to 1000
22 | Cc1cc(Nc2nccc(C(F)(F)F)n2)cc(-c2ccnn2C)c1 [Example 1.9, N-[3-methyl-5-(1-methyl-1H-pyrazol-5-yl)phenyl]-4-(trifluoromethyl)pyrimidin-2-amine] | 100 to 1000
23 | Cc1cc(Nc2nccc(C(F)(F)F)n2)cc(-c2cnn(C[C@H](C)CO)c2)c1 [Example 3.5, (2s)-2-methyl-3-[4-(3-methyl-5-{[4-(trifluoromethyl)-pyrimidin-2-yl]amino}-phenyl)-1H-pyrazol-1-yl]-propan-1-ol] | ≤ 100
24 | Cc1cc(Nc2nccc(C(F)F)n2)cc(-c2cnn(CC(O)CC3COC(=O)C3)c2)c1 (stereo not drawn) [Example 5.28, 4-{3-[4-(3-{[4-(difluoromethyl)pyrimidin-2-yl]amino}-5-methylphenyl)-1H-pyrazol-1-yl]-2-hydroxypropyl}dihydrofuran-2(3H)-one] | ≤ 100
25 | Cc1cc(Nc2nccc(C(F)F)n2)cc(-c2cnn(CC3OC(=O)NC3(C)C)c2)c1 (stereo not drawn) [Example 3.103, 5-{[4-(3-{[4-(difluoromethyl)pyrimidin-2-yl]amino}-5-methylphenyl)-1H-pyrazol-1-yl]methyl}-4,4-dimethyl-1,3-oxazolidin-2-one] | ≤ 100
26 | Cc1cc(Nc2cc(C3CC3)ccn2)nc(-c2cnn(CCC(=O)O)c2)c1 [Example 1.22, 3-(4-{6-[(4-cyclopropylpyridin-2-yl)amino]-4-methylpyridin-2-yl}-1H-pyrazol-1-yl)propanoic acid] | ≤ 100
27 | Cc1cc(Nc2nccc(C(F)F)n2)cc(-c2cnn(Cc3cnc(C)[nH]3)c2)c1 [Example 3.108, 4-(difluoromethyl)-N-(3-methyl-5-{1-[(2-methyl-1H-imidazol-5-yl)methyl]-1H-pyrazol-4-yl}phenyl)pyrimidin-2-amine] | ≤ 100
